Tests used:
FADD−/− Jurkat cells = assay: Necroptosis inhibition assay, TNF-α-induced necroptosis (CellTiter-Glo 2.0); assay type: cell-based, human; details: TNF-α 15 ng/mL; for Necroptosis inhibition assay (Rescue %) 1 μM: compound 1 μM; for Necroptosis inhibition assay (Rescue %) 10 μM: compound 10 μM
Outline: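 FADD−/− Jurkat cells preincubated 30 min at room temperature with compound at 0.1, 1 and 10 μM final, then stimulated with TNF-α (15 ng/mL final) for 20–24 h at 37 °C, 5% CO2. Viability read as ATP luminescence; cytotoxicity and necroptosis inhibition rate calculated from luminescence values.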

MLKL [1] = biological target: T1, MLKL (Homo sapiens, UniProt Q8NB16); assay: MLKL degradation assay in HepG2 cell line (western blot); assay type: cell-based; set-up: endogenous in cells; host or cells: HepG2 or HaCaT; details: cell line not given; for Degradation assay (Degradation %) 1 μM: compound 1 μM; for Degradation assay (Degradation %) 10 μM: compound 10 μM
T1 sequence (Q8NB16 1-471): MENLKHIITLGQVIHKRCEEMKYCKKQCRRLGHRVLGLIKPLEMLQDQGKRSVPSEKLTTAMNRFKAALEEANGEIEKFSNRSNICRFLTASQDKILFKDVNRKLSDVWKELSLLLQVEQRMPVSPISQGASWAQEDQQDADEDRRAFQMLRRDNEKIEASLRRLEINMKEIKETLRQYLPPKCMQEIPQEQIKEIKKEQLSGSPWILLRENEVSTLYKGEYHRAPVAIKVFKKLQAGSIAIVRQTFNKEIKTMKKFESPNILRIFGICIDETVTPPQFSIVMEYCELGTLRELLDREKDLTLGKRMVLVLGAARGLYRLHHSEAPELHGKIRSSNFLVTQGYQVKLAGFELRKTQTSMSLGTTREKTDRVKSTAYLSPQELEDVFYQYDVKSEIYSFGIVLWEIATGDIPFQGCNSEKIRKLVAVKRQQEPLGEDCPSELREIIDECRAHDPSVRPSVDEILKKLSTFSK
Outline: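 HepG2 cells were treated 20-24 h at 37 °C with compound at 1 or 10 μM final. RIPA lysates were normalized by BCA, and 10-15 μg protein per lane was resolved by SDS-PAGE. MLKL was detected by western blot with chemiluminescence.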

MLKL [2] = biological target: T1, MLKL; assay: Measurement of binding affinity with MLKL receptor (competitive binding assay, Kd); set-up: made in house; host or cells: HEK 293 cell line (T7 phage in E. coli BL21-derived host is also described)
Outline: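 Kd from an immobilized-ligand competition format: the DNA-tagged kinase from HEK 293 expression is eluted and quantified by qPCR. Compounds added from 111× DMSO stocks, final DMSO 0.9%.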

| Degradation assay (Degradation %) 1 μM (MLKL [1]) [%] | Degradation assay (Degradation %) 10 μM (MLKL [1]) [%] | Kd (MLKL [2]) [nM] | Structure (SMILES) | Necroptosis inhibition assay (Rescue %) 1 μM (FADD−/− Jurkat cells) [%] | Necroptosis inhibition assay (Rescue %) 10 μM (FADD−/− Jurkat cells) [%] |
| --- | --- | --- | --- | --- | --- |
| 69.87 | 69.78 | 5.5 | Nc1ncc(-c2cnn(C3CCN(C(=O)c4cn(C5CCN(C(=O)C6CCN(c7cccc8c7C(=O)N(C7CCC(=O)NC7=O)C8=O)CC6)CC5)cn4)CC3)c2)nc1C(=O)O[C@@H](C(=O)Nc1ccc(F)cc1)c1ccccc1 (stereo partly drawn) [TDH-362, (R)-2-((4-fluorophenyl)amino)-2-oxo-1-phenylethyl 3-amino-6-(1-(1-(1-(1-(1-(2-(2,6-dioxopiperidin-3-yl)-1,3-dioxoisoindolin-4-yl)piperidine-4-carbonyl)piperidin-4-yl)-1H-imidazole-4-carbonyl)piperidin-4-yl)-1H-pyrazol-4-yl)pyrazine-2-carboxylate] | 17.89 | 16.12 |
| 76.83 | 69.84 | 2.9 | Nc1ncc(-c2cnn(C3CCN(C(=O)c4cn(C5CCN(C(=O)C6CCN(c7ccc8c(c7)C(=O)N(C7CCC(=O)NC7=O)C8=O)CC6)CC5)cn4)CC3)c2)nc1C(=O)O[C@@H](C(=O)Nc1ccc(F)cc1)c1ccccc1 (stereo partly drawn) [TDH-363, (R)-2-((4-fluorophenyl)amino)-2-oxo-1-phenylethyl 3-amino-6-(1-(1-(1-(1-(1-(2-(2,6-dioxopiperidin-3-yl)-1,3-dioxoisoindolin-5-yl)piperidine-4-carbonyl)piperidin-4-yl)-1H-imidazole-4-carbonyl)piperidin-4-yl)-1H-pyrazol-4-yl)pyrazine-2-carboxylate] | 32.65 | 27.11 |
| 72.07 | 65.89 | 5.3 | Nc1ncc(-c2cnn(C3CCN(C(=O)c4cn(C5CCN(c6cccc7c6C(=O)N(C6CCC(=O)NC6=O)C7=O)CC5)cn4)CC3)c2)nc1C(=O)O[C@@H](C(=O)Nc1ccc(F)cc1)c1ccccc1 (stereo partly drawn) [TDH-364, (R)-2-((4-fluorophenyl)amino)-2-oxo-1-phenylethyl 3-amino-6-(1-(1-(1-(1-(2-(2,6-dioxopiperidin-3-yl)-1,3-dioxoisoindolin-4-yl)piperidin-4-yl)-1H-imidazole-4-carbonyl)piperidin-4-yl)-1H-pyrazol-4-yl)pyrazine-2-carboxylate] | 22.41 | 17.66 |
| 72.59 | 82.21 | 3.9 | Nc1ncc(-c2cnn(C3CCN(C(=O)c4cn(C5CCN(c6ccc7c(c6)C(=O)N(C6CCC(=O)NC6=O)C7=O)CC5)cn4)CC3)c2)nc1C(=O)O[C@@H](C(=O)Nc1ccc(F)cc1)c1ccccc1 (stereo partly drawn) [TDH-365, (R)-2-((4-fluorophenyl)amino)-2-oxo-1-phenylethyl 3-amino-6-(1-(1-(1-(1-(2-(2,6-dioxopiperidin-3-yl)-1,3-dioxoisoindolin-5-yl)piperidin-4-yl)-1H-imidazole-4-carbonyl)piperidin-4-yl)-1H-pyrazol-4-yl)pyrazine-2-carboxylate] | 19.16 | 16.51 |
| 87.27 | 80.23 | 1.2 | Nc1ncc(-c2cnn(C3CCN(CCC4CCN(C(=O)CC5CCN(c6cccc7c6C(=O)N(C6CCC(=O)NC6=O)C7=O)CC5)CC4)CC3)c2)nc1C(=O)O[C@@H](C(=O)Nc1ccc(F)cc1)c1ccccc1 (stereo partly drawn) [TDH-366, (R)-2-((4-fluorophenyl)amino)-2-oxo-1-phenylethyl 3-amino-6-(1-(1-(2-(1-(2-(1-(2-(2,6-dioxopiperidin-3-yl)-1,3-dioxoisoindolin-4-yl)piperidin-4-yl)acetyl)piperidin-4-yl)ethyl)piperidin-4-yl)-1H-pyrazol-4-yl)pyrazine-2-carboxylate] | 45.56 | 22.39 |

The remaining lines, values behind:

| Structure (SMILES) | Degradation assay (Degradation %) 1 μM (MLKL [1]) [%] | Degradation assay (Degradation %) 10 μM (MLKL [1]) [%] | Kd (MLKL [2]) [nM] | Necroptosis inhibition assay (Rescue %) 1 μM (FADD−/− Jurkat cells) [%] | Necroptosis inhibition assay (Rescue %) 10 μM (FADD−/− Jurkat cells) [%] |
| --- | --- | --- | --- | --- | --- |
| Nc1ncc(-c2cnn(C3CCN(CCC4CCN(C(=O)CC5CCN(c6ccc7c(c6)C(=O)N(C6CCC(=O)NC6=O)C7=O)CC5)CC4)CC3)c2)nc1C(=O)O[C@@H](C(=O)Nc1ccc(F)cc1)c1ccccc1 (stereo partly drawn) [TDH-367, (R)-2-((4-fluorophenyl)amino)-2-oxo-1-phenylethyl 3-amino-6-(1-(1-(2-(1-(2-(1-(2-(2,6-dioxopiperidin-3-yl)-1,3-dioxoisoindolin-5-yl)piperidin-4-yl)acetyl)piperidin-4-yl)ethyl)piperidin-4-yl)-1H-pyrazol-4-yl)pyrazine-2-carboxylate] | 84.28 | 80.64 | 0.82 | 36.86 | 21.34 |
| Nc1ncc(-c2cnn(C3CCN(CCCN4CCN(C(=O)CC5CCN(c6cccc7c6C(=O)N(C6CCC(=O)NC6=O)C7=O)CC5)CC4)CC3)c2)nc1C(=O)O[C@@H](C(=O)Nc1ccc(F)cc1)c1ccccc1 (stereo partly drawn) [TDH-368, (R)-2-((4-fluorophenyl)amino)-2-oxo-1-phenylethyl 3-amino-6-(1-(1-(3-(4-(2-(1-(2-(2,6-dioxopiperidin-3-yl)-1,3-dioxoisoindolin-4-yl)piperidin-4-yl)acetyl)piperazin-1-yl)propyl)piperidin-4-yl)-1H-pyrazol-4-yl)pyrazine-2-carboxylate] | 86.09 | 88.6 | 1 | 40.51 | 5.97 |
| Nc1ncc(-c2cnn(C3CCN(CCCN4CCN(C(=O)CC5CCN(c6ccc7c(c6)C(=O)N(C6CCC(=O)NC6=O)C7=O)CC5)CC4)CC3)c2)nc1C(=O)O[C@@H](C(=O)Nc1ccc(F)cc1)c1ccccc1 (stereo partly drawn) [TDH-369, (R)-2-((4-fluorophenyl)amino)-2-oxo-1-phenylethyl 3-amino-6-(1-(1-(3-(4-(2-(1-(2-(2,6-dioxopiperidin-3-yl)-1,3-dioxoisoindolin-5-yl)piperidin-4-yl)acetyl)piperazin-1-yl)propyl)piperidin-4-yl)-1H-pyrazol-4-yl)pyrazine-2-carboxylate] | 73.33 | 94 | 1.1 | 48.04 | 22.49 |
| Nc1ncc(-c2cnn(C3CCN(CCCN4CCN(C(=O)COc5ccc6nnn(C7CCC(=O)NC7=O)c(=O)c6c5)CC4)CC3)c2)nc1C(=O)O[C@@H](C(=O)Nc1ccc(F)cc1)c1ccccc1 (stereo partly drawn) [TDH-370, (R)-2-((4-fluorophenyl)amino)-2-oxo-1-phenylethyl 3-amino-6-(1-(1-(3-(4-(2-((3-(2,6-dioxopiperidin-3-yl)-4-oxo-3,4-dihydrobenzo[d][1,2,3]triazin-6-yl)oxy)acetyl)piperazin-1-yl)propyl)piperidin-4-yl)-1H-pyrazol-4-yl)pyrazine-2-carboxylate] | 91.76 | 85.83 | 0.28 | 52.00 | 24.38 |
| Nc1ncc(-c2cnn(C3CCN(CCOC4CCN(C(=O)CC5CCN(c6cccc7c6C(=O)N(C6CCC(=O)NC6=O)C7=O)CC5)CC4)CC3)c2)nc1C(=O)O[C@@H](C(=O)Nc1ccc(F)cc1)c1ccccc1 (stereo partly drawn) [TDH-371, (R)-2-((4-fluorophenyl)amino)-2-oxo-1-phenylethyl 3-amino-6-(1-(1-(2-((1-(2-(1-(2-(2,6-dioxopiperidin-3-yl)-1,3-dioxoisoindolin-4-yl)piperidin-4-yl)acetyl)piperidin-4-yl)oxy)ethyl)piperidin-4-yl)-1H-pyrazol-4-yl)pyrazine-2-carboxylate] | 82.38 | 83.26 | 3.7 | 35.76 | 25.74 |
| Nc1ncc(-c2cnn(C3CCN(CCOC4CCN(C(=O)CC5CCN(c6ccc7c(c6)C(=O)N(C6CCC(=O)NC6=O)C7=O)CC5)CC4)CC3)c2)nc1C(=O)O[C@@H](C(=O)Nc1ccc(F)cc1)c1ccccc1 (stereo partly drawn) [TDH-372, (R)-2-((4-fluorophenyl)amino)-2-oxo-1-phenylethyl 3-amino-6-(1-(1-(2-((1-(2-(1-(2-(2,6-dioxopiperidin-3-yl)-1,3-dioxoisoindolin-5-yl)piperidin-4-yl)acetyl)piperidin-4-yl)oxy)ethyl)piperidin-4-yl)-1H-pyrazol-4-yl)pyrazine-2-carboxylate] | 78.14 | 81.79 | 12 | 26.36 | 28.54 |

— patent US20240252488A1 (KOREA RESEARCH INSTITUTE OF CHEMICAL TECHNOLOGY, priority 2020, published 2024)
